Laboratory results taken from patent publication US9656988B2 (Pharmacyclics LLC, priority 2013, dated 2017).
Read-outs that look alike come from different tables or passages of the source.

Target: BTK (Homo sapiens (Human), UniProt Q06187)
Assay: Btk in vitro inhibitory activity (one of Method A TR-FRET, Method B electrophoretic mobility shift, Method C radiometric filter binding)
Type: biochemical
[1] = determined using one of the methods of Example 355a, 355b and 355c, read-out: BTK IC50

Chain of BTK (Q06187 whole entry): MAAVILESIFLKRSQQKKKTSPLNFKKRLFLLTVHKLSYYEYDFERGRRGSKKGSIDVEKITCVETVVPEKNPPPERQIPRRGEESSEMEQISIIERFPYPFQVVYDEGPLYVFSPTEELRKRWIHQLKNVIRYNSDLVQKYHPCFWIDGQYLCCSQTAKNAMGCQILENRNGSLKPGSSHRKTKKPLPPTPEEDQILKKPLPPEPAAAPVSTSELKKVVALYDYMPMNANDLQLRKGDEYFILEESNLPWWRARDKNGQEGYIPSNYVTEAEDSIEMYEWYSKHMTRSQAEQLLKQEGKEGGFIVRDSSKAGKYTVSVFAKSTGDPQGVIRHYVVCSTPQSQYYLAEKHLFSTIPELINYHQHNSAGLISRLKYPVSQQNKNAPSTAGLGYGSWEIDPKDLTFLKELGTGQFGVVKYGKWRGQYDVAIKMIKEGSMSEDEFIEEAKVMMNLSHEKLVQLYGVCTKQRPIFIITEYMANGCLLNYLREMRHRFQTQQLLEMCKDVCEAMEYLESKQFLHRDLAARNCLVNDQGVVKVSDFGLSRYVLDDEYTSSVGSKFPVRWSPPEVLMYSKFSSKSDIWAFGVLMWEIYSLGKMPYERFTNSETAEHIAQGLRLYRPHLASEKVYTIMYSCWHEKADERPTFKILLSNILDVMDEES

Question: `NC(=O)c1ncc(N2CCC[C@@H](NC(=O)c3ccc4ccccc4c3)C2)nc1Nc1ccc(C2CCN(C3CC3)CC2)cc1` [Example 317, (R)-5-(3-(2-naphthamido)piperidin-1-yl)-3-(4-(1-cyclopropylpiperidin-4-yl)phenylamino)pyrazine-2-carboxamide] was tested. Which IC50 [1] did it give?
Answer: Its IC50 is 10 to 100 nM.

Question: Which IC50 [1] does the source give for `NC(=O)c1ncc(N2CCC[C@@H](NC(=O)c3ccc(-c4ccccc4)cc3)C2)nc1Nc1ccc(C2CCN(C3CC3)CC2)cc1` [Example 318, (R)-5-(3-biphenyl-4-ylcarboxamidopiperidin-1-yl)-3-(4-(1-cyclopropylpiperidin-4-yl)phenylamino)pyrazine-2-carboxamide] here?
Answer: Its IC50 is 10 to 100 nM.

Question: How did the IC50 [1] turn out when `NC(=O)c1ncc(N2CCC[C@@H](NC(=O)c3ccc(-c4ccccc4)nc3)C2)nc1Nc1ccc(C2CCN(C3CC3)CC2)cc1` [Example 319, (R)-3-(4-(1-cyclopropylpiperidin-4-yl)phenylamino)-5-(3-(6-phenylnicotinamido)piperidin-1-yl)pyrazine-2-carboxamide] was run?
Answer: The IC50 was less than 10 nM.

Question: With `NC(=O)c1ncc(N2CCC[C@@H](NC(=O)c3ccc(F)cc3)C2)nc1Nc1ccc(C2CCN(C3CCCC3)CC2)cc1` [Example 320, (R)-3-(4-(1-cyclopentylpiperidin-4-yl)phenylamino)-5-(3-(4-fluorobenzamido)piperidin-1-yl)pyrazine-2-carboxamide] as the compound, how does the IC50 [1] read?
Answer: The IC50 was less than 10 nM.

Question: What about the IC50 (read-out: Btk (IC50)) of the same compound?
Answer: Its IC50 is less than 10 nM.

Question: Which IC50 [1] does the source give for `CN(C(=O)N[C@@H]1CCCN(c2cnc(C(N)=O)c(Nc3ccc(F)cc3)n2)C1)c1cc(Cl)cc(C(F)(F)F)c1` [Example 322, (R)-5-(3-(3-(3-chloro-5-(trifluoromethyl)phenyl)-3-methylureido)piperidin-1-yl)-3-(4-fluorophenylamino)pyrazine-2-carboxamide] here?
Answer: Its IC50 is 100 to 1000 nM.

Question: And the IC50 (read-out: Btk (IC50))?
Answer: The IC50 was 100 to 1000 nM.

Question: For `CN(C(=O)N[C@@H]1CCCN(c2cnc(C(N)=O)c(Nc3ccc(C4(C#N)CC4)cc3)n2)C1)c1cc(Cl)cc(C(F)(F)F)c1` [Example 323, (R)-5-(3-(3-(3-chloro-5-(trifluoromethyl)phenyl)-3-methylureido)piperidin-1-yl)-3-(4-(1-cyanocyclopropyl)phenylamino)pyrazine-2-carboxamide], which IC50 [1] is on record?
Answer: The IC50 was 100 to 1000 nM.

Question: And the IC50 (read-out: Btk (IC50))?
Answer: Its IC50 is 100 to 1000 nM.

Question: What does the source list for `CN(C(=O)N[C@@H]1CCCN(c2cnc(C(N)=O)c(Nc3ccc(C4(C(N)=O)CC4)cc3)n2)C1)c1cc(Cl)cc(C(F)(F)F)c1` [Example 324, (R)-3-(4-(1-carbamoylcyclopropyl)phenylamino)-5-(3-(3-(3-chloro-5-(trifluoromethyl)phenyl)-3-methylureido)piperidin-1-yl)pyrazine-2-carboxamide]?
Answer: IC50 [1]: 10 to 100 nM; IC50 (read-out: Btk (IC50)): 10 to 100 nM

Question: `NC(=O)c1ncc(N2CCC[C@@H](NC(=O)c3ccc4nccn4c3)C2)nc1Nc1ccc(C2CCOCC2)cc1` [Example 325, (R)—N-(1-(5-carbamoyl-6-(4-(tetrahydro-2H-pyran-4-yl)phenylamino)pyrazin-2-yl)piperidin-3-yl)imidazo[1,2-a]pyridine-6-carboxamide] was tested. Which IC50 [1] did it give?
Answer: The IC50 was less than 10 nM.

Question: And the IC50 (read-out: Btk (IC50))?
Answer: Its IC50 is less than 10 nM.

Question: With `CN(C)C(=O)N[C@@H]1CCCCN(c2cnc(C(N)=O)c(Nc3ccc(C4CCN(C5CCCC5)CC4)cc3)n2)C1` [Example 327, (R)-3-(4-(1-cyclopentylpiperidin-4-yl)phenylamino)-5-(3-(3,3-dimethylureido)azepan-1-yl)pyrazine-2-carboxamide] as the compound, how does the IC50 [1] read?
Answer: The IC50 was less than 10 nM.

Question: And the IC50 (read-out: Btk (IC50))?
Answer: Its IC50 is less than 10 nM.

Question: What does the source list for `NC(=O)c1ncc(N2CCCC[C@@H](NC(=O)C3CC3)C2)nc1Nc1ccc(C2CCN(C3CCCC3)CC2)cc1` [Example 328, (R)-3-(4-(1-cyclopentylpiperidin-4-yl)phenylamino)-5-(3-(cyclopropanecarboxamido)azepan-1-yl)pyrazine-2-carboxamide]?
Answer: IC50 [1]: < 10 nM; IC50 (read-out: Btk (IC50)): < 10 nM

Question: Which results are given for `CN(C)C(=O)N[C@@H]1CCCN(c2nnc(C(N)=O)c(Nc3ccc(C4CCN(C5CCCC5)CC4)cc3)n2)C1` [Example 329, (R)-5-(4-(1-cyclopentylpiperidin-4-yl)phenylamino)-3-(3-(3,3-dimethylureido)piperidin-1-yl)-1,2,4-triazine-6-carboxamide]?
Answer: IC50 (Btk (IC50)): < 10 nM; IC50 [1]: < 10 nM

Question: Which results are given for `CCC(=O)N[C@@H]1CCCN(c2nnc(C(N)=O)c(Nc3ccc(C4CCN(C5CCCC5)CC4)cc3)n2)C1` [Example 330, (R)-5-(4-(1-cyclopentylpiperidin-4-yl)phenylamino)-3-(3-propionamidopiperidin-1-yl)-1,2,4-triazine-6-carboxamide]?
Answer: IC50 [1]: < 10 nM; IC50 (read-out: Btk (IC50)): < 10 nM

Question: How did the IC50 [1] turn out when `COc1ccc(C(=O)N[C@@H]2CCCN(c3nnc(C(N)=O)c(Nc4ccc(N5CCN(C6CCCC6)CC5)cc4)n3)C2)cc1` [Example 331, (R)-5-(4-(4-cyclopentylpiperazin-1-yl)phenylamino)-3-(3-(4-methoxybenzamido)piperidin-1-yl)-1,2,4-triazine-6-carboxamide] was run?
Answer: Its IC50 is less than 10 nM.

Question: How did the IC50 [1] turn out when `COc1ccc(C(=O)N[C@@H]2CCCN(c3nnc(C(N)=O)c(Nc4ccc(N5CCC(C(=O)N(C)C)CC5)cc4)n3)C2)cc1` [Example 332, (R)-5-(4-(4-(dimethylcarbamoyl)piperidin-1-yl)phenylamino)-3-(3-(4-methoxybenzamido)piperidin-1-yl)-1,2,4-triazine-6-carboxamide] was run?
Answer: Its IC50 is less than 10 nM.

Question: How did the IC50 [1] turn out when `COc1ccc(C(=O)N[C@@H]2CCCN(c3nnc(C(N)=O)c(Nc4ccc(C5CCNCC5)cc4)n3)C2)cc1` [Example 333, (R)-3-(3-(4-methoxybenzamido)piperidin-1-yl)-5-(4-(piperidin-4-yl)phenylamino)-1,2,4-triazine-6-carboxamide] was run?
Answer: The IC50 was less than 10 nM.

Question: How did the IC50 [1] turn out when `COc1ccc(C(=O)N[C@@H]2CCCN(c3nnc(C(N)=O)c(Nc4ccc(C5CCN(C6CCCC6)CC5)cc4)n3)C2)cc1` [Example 334, (R)-5-(4-(1-cyclopentylpiperidin-4-yl)phenylamino)-3-(3-(4-methoxybenzamido)piperidin-1-yl)-1,2,4-triazine-6-carboxamide] was run?
Answer: Its IC50 is less than 10 nM.

Question: How did the IC50 [1] turn out when `NC(=O)c1nnc(N2CCC[C@@H](NC(=O)N3CCCCC3)C2)nc1Nc1ccc(C2CCNCC2)cc1` [Example 335, (R)-5-(4-(piperidin-4-yl)phenylamino)-3-(3-(piperidine-1-carboxamido)piperidin-1-yl)-1,2,4-triazine-6-carboxamide] was run?
Answer: Its IC50 is less than 10 nM.

Question: With `NC(=O)c1nnc(N2CCC[C@@H](NC(=O)N3CCCCC3)C2)nc1Nc1ccc(C2CCN(C3CCCC3)CC2)cc1` [Example 336, (R)-5-(4-(1-cyclopentylpiperidin-4-yl)phenylamino)-3-(3-(piperidine-1-carboxamido)piperidin-1-yl)-1,2,4-triazine-6-carboxamide] as the compound, how does the IC50 [1] read?
Answer: Its IC50 is less than 10 nM.

Question: And the IC50 (read-out: Btk (IC50))?
Answer: Its IC50 is less than 10 nM.

Question: What does the source list for `NC(=O)c1nnc(N2CCC[C@@H](NC(=O)N3CCCCC3)C2)nc1Nc1ccc(C2CCN(C=O)CC2)cc1` [Example 337, (R)-5-(4-(1-formylpiperidin-4-yl)phenylamino)-3-(3-(piperidine-1-carboxamido)piperidin-1-yl)-1,2,4-triazine-6-carboxamide]?
Answer: IC50 [1]: < 10 nM; IC50 (read-out: Btk (IC50)): < 10 nM

Question: How did the IC50 [1] turn out when `CC(=O)N1CCC(c2ccc(Nc3nc(N4CCC[C@@H](NC(=O)N5CCCCC5)C4)nnc3C(N)=O)cc2)CC1` [Example 338, (R)-5-(4-(1-acetylpiperidin-4-yl)phenylamino)-3-(3-(piperidine-1-carboxamido)piperidin-1-yl)-1,2,4-triazine-6-carboxamide] was run?
Answer: Its IC50 is less than 10 nM.

Question: What about the IC50 (read-out: Btk (IC50)) of the same compound?
Answer: Its IC50 is less than 10 nM.
